{"source": "patent US20080221205A1", "about": "“FURAN DERIVATIVES FOR PREVENTING AND CURING OSTEOPOROSIS AND PHARMACEUTICAL COMPOSITIONS CONTAINING THE SAME” (priority 2002, published 2008)", "key": {"[1]": {"test_system": "ALP activity in HOS cells", "experiment": "Alkaline phosphatase (osteoblast marker enzyme) activity in HOS cells", "assay_type": "cell-based, human", "conditions": "concentration not given", "description": "In the following tests, three kinds of cell lines were used. The human osteosarcoma cell lines, MG-63 (ATCC No. CRL-1427) and HOS (ATCC No. CRL-1543), and mouse muscle C2C12 muscle cells (ATCC No. CRL-1772) were purchased from ATCC (American Type Culture Collection, Rockville, USA), and cultured in Dulbecco's modified Eagle's medium (DMEM) supplemented with 10% fetal bovine serum (FBS).\nTo examine whether the Compound 1 affects positively or negatively osteoblast activity, alkaline phosphatase (ALP) activity was measured. HOS cells were aliquotted onto a 96-well microplate at a density of 5×10^3 cells per well, and cultured. When forming a monolayer, the cells were treated with the naturally extracted compound (Compound 1) at prescribed concentrations. After incubation in 10% FBS-containing DMEM for 48 hrs, the cells were treated with 0.1% Triton X-100/saline for 30 min at 37° C. A portion of each cell lysate was reacted with 0.1 N glycine-NaCh buffer (pH 10.4) for 30 min at 37° C. in the presence of 100 mM nitrophenyl phosphate (PNPP) as a substrate of alkaline phosphate. The amount of PNP (ρ-nitrophenol) released from the substrate PNPP was determined by measuring absorbance at 405 nm. Protein amount was determined by a modified Lowry method, and enzyme activity was designated as nmol substrate cleaved/h/mg protein."}, "[2]": {"test_system": "osteoclast progenitor cells", "experiment": "Formation of TRAP-positive multinucleated cells from osteoclast progenitors", "assay_type": "cell-based, mice", "conditions": "concentration not given, control 132", "method": "In order to investigate the effects of the Compound 1 on differentiation and activity of osteoclasts, when differentiation of osteoclast progenitors was induced, the activity of Tartrate-resistant acid phosphatase (TRAP) as an osteoclastic marker enzyme was investigated, and, when differentiated osteoclasts were cultured on calcium phosphate-coated plates (OAAS, OCT Inc.), resorption activity (formation of resorption pits) were measured.\nFirst, bone marrow cells were isolated, as follow. After sacrificing 7-9 week female mice by cervical dislocation, femur and tibia were excised aseptically while removing attached soft tissues. After cutting both ends of long bones, 1 ml of an enzyme solution, containing 0.1% collagenase (Gibco), 0.05% trypsin and 0.5 mM EDTA (Gibco), was injected to the bone marrow cavity at one end using a syringe with a 26-guage needle, and bone marrow was then collected. After shaking the recovered bone marrow for 30 min, bone marrow cells were collected, and cultured in α-minimum essential medium (α-MEM) supplemented with 10% FBS for 24 hrs. […]\nOsteoclasts are derived from hematopoietic cells belonging to the monocyte/macrophage lineage originating in bone marrow. […] The formed TRAP-positive multinucleated cells containing three or more nuclei were counted as osteoclasts, and the counted cell number was compared to that of a control not treated with the Compound 1."}, "[3]": {"test_system": "ovariectomized white mice", "experiment": "Therapeutic effect on osteoporosis: tibia histology, oral administration from four weeks after ovariectomy", "assay_type": "in vivo", "conditions": "four weeks to develop osteoporosis, then oral 220 μl/day for four weeks, versus control", "method": "In order to evaluate effects of the compound of the present invention on treatment and prevention of osteoporosis, female white mice with osteoporosis induced by ovariectomy were used as a disease model. After ovariectomy, mice were administered with the compound of the present invention. Tibias were dissected from the mice, and observed histologically.\nAfter anesthetizing female white mice with 100 mg/kg of Ketamine (Ketara) and 0.15 ml/kg of 2% Xylazine (Rompun), the lumbar dorsum is shaved bilaterally and the exposed skin was prepared for aseptic surgery by a 10% povidone-iodine scrub followed by a 70% alcohol wipe.\nA 1-cm incision was made in the central region of the abdomen, and the ovary was identified along with the uterus with caution not to damage the main organs such as the liver and diaphragm. After ligating the uterus with a thread for suturing, the exposed ovary was severed toward both sides and removed. Thereafter, each organ was relocated to its original position, and the incision was closed with a thread for suturing in an interrupted pattern. After ovariectomy, the mice were injected with 50 mg/kg of cefazolin antibiotic for prevention of infection with pathogens.\nIn order to evaluate therapeutic effect of the Compound 1 on osteoporosis, after ovariectomy, the mice were fed with solid feedstuff for four weeks. […]"}, "[4]": {"conditions": "listed as compound prepared in Example 1"}}, "note": "Entries after “also recorded” stand apart in the source; their conditions may differ.", "data": [{"smiles": "O=Cc1ccc(CO)o1", "note": "[Compound 1, 5-hydroxymethylfuran-2-carboxyaldehyde]", "values": [{"measurement": "Alkaline phosphatase activity compared to control", "setting": "[1]", "result": "about 121%"}, {"measurement": "Alkaline phosphatase activity compared to control", "setting": "[1]; [4]", "result": 120, "unit": "%"}, {"measurement": "Number of TRAP-positive multinucleated cells", "setting": "[2]", "result": 77}, {"measurement": "Number of TRAP-positive multinucleated cells", "setting": "[2]; [4]", "result": "remarkably reduced"}, {"measurement": "Trabecular bone density of tibia, light microscopy", "setting": "[3]", "result": "just a slight decrease in trabecular bone density; also recorded: no trabecular bone loss"}]}]}
